Data taken from PMC9959553, “Promising Antifungal Molecules against Mucormycosis Agents Identified from Pandemic Response Box®: In Vitro and In Silico Analyses” (Journal of Fungi, 2023).
In brackets after ≈: the same amount, converted by molar mass.

Legend:
R. microsporus = assay: Antifungal susceptibility testing (broth microdilution, MIC and MFC); format: cell-based, Rhizopus microsporus var. microsporus; conditions: for Selectivity Index (SI), Planktonic Cell: R. microsporus, from CC50 and MIC50 of planktonic cells; for MIC50 / MFC: Rhizopus microsporus, 48 h; for MIC50: lowest concentration that inhibits 50% of fungal growth; for MFC: subculture in drug-free medium
Procedure: The susceptibility of the Rhizopus species to MMV396785 (alexidine), MMV1580844, MMV642550 and MMV019724 was determined using the broth microdilution method, according to EUCAST protocols, with modifications. Posaconazole and amphotericin B were also used as reference antifungal drugs because they are commonly used for the treatment of mucormycosis. […] A standardized suspension of conidia (2 × 10^5/mL) was added to the wells and incubated for 48 h at 37 °C, in a 5% CO2 atmosphere. Fungal growth was analyzed via spectrophotometry readings at 600 nm and cell viability was assessed using the XTT reduction assay. Minimum inhibitory concentration (MIC) of each compound was defined as the lowest concentration that inhibits 50% of fungal growth, because these fungi are highly resistant to antifungal drugs and a reduction in half of their growth is relevant. […] MFC values were defined as the lowest drug concentration able to arrest fungal growth.

[1] = tested on: R. microsporus preformed biofilm; assay: Preformed biofilm assay; format: cell-based, Rhizopus microsporus; conditions: for Selectivity Index (SI), Preformed Biofilm: R. microsporus, based on biofilm viability parameter
Procedure: (§1) For the preformed biofilm assay, cells were cultured as described above in the absence of the compounds. […] An additional incubation of 24 h at 37 °C was performed to evaluate the anti-biofilm activity. Evaluation of both biofilm formation and preformed biofilms was performed using three parameters as previously described. Crystal violet, safranin and XTT assays were used to analyze the overall biomass, extracellular matrix and metabolic activity, respectively.

[2] = tested on: R. stolonifer preformed biofilm; assay: Preformed biofilm assay; format: cell-based, Rhizopus stolonifer; conditions: for Selectivity Index (SI), Preformed Biofilm: R. stolonifer, based on biofilm viability parameter
Procedure: as §1

R. oryzae cells = assay: Analysis of fungal cell alterations with fluorescent staining; format: cell-based, Rhizopus oryzae; conditions: ½× MIC50, 48 h
Procedure: Alterations of R. oryzae cells caused by alexidine, MMV1580844, MMV642550 and MMV019724 were analyzed using fluorescent staining. Chitin, nucleic acid, oxidative stress, mitochondrial membrane potential and neutral lipid content were evaluated using calcofluor white (Sigma-Aldrich, MO, USA), Sytox Blue (ThermoFisher, Waltham, MA, USA), 2′,7′–dichlorofluorescein diacetate (DCFH-DA) (Sigma-Aldrich, MO, USA), JC-1 probe (ThermoFisher, Waltham, MA, USA) and Nile Red (Sigma-Aldrich, MO, USA), respectively. […] Cells were stained with 25 μg/mL of calcofluor white, 20 μM of Sytox Blue, 50 μg/mL of DCFH-DA, 10 μg/mL of JC-1 or 20 μg/mL of Nile Red, all of them for 1 h at 37 °C in the dark. Samples were washed three times to remove residual dye and suspended in PBS. Fluorescence intensity was measured using the SpectraMax 340 microplate reader (Molecular Devices, San José, CA, USA) under the following conditions: calcofluor white at 350 nm (excitation) and 432 nm (emission); Sytox Blue at 444 nm (excitation) and 480 nm (emission); DCFH-DA at 492 nm (excitation) and 517 nm (emission); JC-1 at 475 nm (excitation) and 529 nm (green fluorescence) or 590 nm (red fluorescence) for the calculation of the red/green fluorescence intensity; and Nile Red at 550 nm (excitation) and 635 nm (emission).

R. oryzae UCP1295 = assay: Antifungal drug synergy assay, checkerboard method (FICI); format: cell-based, Rhizopus oryzae; conditions: Rhizopus arrhizus, UCP1295, 48 h; drug alone; read-out: MIC50 Alone
Procedure: (§2) Synergistic interactions were evaluated using the checkerboard method according to EUCAST guidelines (EUCAST 2008). R. oryzae conidia (2 × 10^5/mL) were grown in 96-well plates containing supplemented RPMI in the presence of the following selected compounds: […] An inhibition of at least 50% was defined as the cut-off for minimum inhibitory concentration (MIC). Interactions were determined by the fractional inhibitory concentration index (FICI), which was calculated using the following formula: (MIC combined/MIC drug A alone) + (MIC combined/MIC drug B alone). […] The Bliss independence model calculation was performed according to […] colleagues and Zhao and colleagues. The following formula was used to assess drug interaction: […] The results were classified as follows: synergistic effect when Eobs > Eexp; indifference when Eobs = Eexp; antagonistic effect when Eobs < Eexp.

R. oryzae = assay: Antifungal drug synergy assay, Bliss independence model; format: cell-based, Rhizopus oryzae; parameters: key to Interaction: S, synergistic interaction; A, antagonist interaction; Efficacy of Combined Drugs, E obs / Efficacy of Combined Drugs, E exp: concentration or dose not given beside the values; conditions: for Efficacy of Drugs Alone (% of Inhibition), MIC50: at MIC50; for Efficacy of Drugs Alone (% of Inhibition), ½ MIC50: at ½ MIC50; for ΔE: Eobs minus Eexp; for Efficacy of Combined Drugs, E exp: expected by Bliss calculation
Procedure: as §2

[3] = Cytotoxicity assay (neutral red); format: cell-based; conditions: human
Procedure: Cytotoxicity of alexidine, MMV1580844, MMV642550 and MMV019724 was performed using three cell lineages: RAW 264.7, a murine macrophage culture; A549, adenocarcinomic human alveolar basal epithelial cells; and HaCaT, a spontaneously transformed aneuploid immortal keratinocyte cell line from adult human skin. Cells were grown in DMEM (Dulbecco’s Modified Eagle’s Medium, Sigma-Aldrich, MO, USA), supplemented with 10% fetal bovine serum and incubated for 48 h at 37 °C with 5% CO2 in the presence of serially diluted concentrations (0.3–50 μM) of each compound. Cell viability was measured using the neutral red (NR) assay and quantified using a spectrophotometer at 595 nm (SpectraMax® i3x, Molecular Devices®, San José, CA, USA).

[4] = preformed biofilm, 24 h treatment
[5] = A549 alveolar basal epithelial cells, A549, 48 h

CCCCC(CC)CNC(=N)NC(=N)NCCCCCCNC(=N)NC(=N)NCC(CC)CCCC (centres unmarked) [MMV396785, Alexidine, reference compound]
Selectivity Index (SI), Planktonic Cell (R. microsporus; listed as Alexidina MMV396785): >40 | MIC50 (R. microsporus): 1.25 µM (≈ 0.636 µg/mL) | MFC (R. microsporus): 1.25 µM (≈ 0.636 µg/mL) | Selectivity Index (SI), Preformed Biofilm ([1]; listed as Alexidina MMV396785): >20 | concentration giving significant decrease in biofilm parameters [1, 4]: 2 × MIC | Selectivity Index (SI), Preformed Biofilm ([2]; listed as Alexidina MMV396785): >20 | concentration giving significant decrease in biofilm parameters [2, 4]: 4 × MIC | DNA content (Sytox blue) (R. oryzae cells): reduction | chitin content (calcofluor white) (R. oryzae cells): reduction | mitochondrial membrane potential (JC-1) (R. oryzae cells): did not affect | neutral lipids (Nile Red) (R. oryzae cells): reduction | MIC (R. oryzae UCP1295): 1.25 µM | Efficacy of Drugs Alone (% of Inhibition), MIC50 (R. oryzae): 67.6 % of Inhibition | Efficacy of Drugs Alone (% of Inhibition), ½ MIC50 (R. oryzae): 21.5 % of Inhibition | Efficacy of Combined Drugs, E obs (R. oryzae; combined with Amphotericin B): 85.9% | Interaction (R. oryzae; combined with Amphotericin B): S | ΔE (R. oryzae; combined with Amphotericin B): 1.7% | Efficacy of Combined Drugs, E exp (R. oryzae; combined with Amphotericin B): 84.2% | Efficacy of Combined Drugs, E obs (R. oryzae; combined with Posaconazole): 91.9% | Interaction (R. oryzae; combined with Posaconazole): A | ΔE (R. oryzae; combined with Posaconazole): −4.7% | Efficacy of Combined Drugs, E exp (R. oryzae; combined with Posaconazole): 96.6% | CC50 at 48 h [3, 5]: > 50 µM | CC50 at 48 h ([3]; HaCaT keratinocyte cells): > 50 µM

CCc1nc(N)nc(N)c1C#CC(C)c1cc(OC)cc(-c2ccncc2)c1 (centres unmarked) [MMV1580844]
Selectivity Index (SI), Planktonic Cell (R. microsporus): >625 | MIC50 (R. microsporus): 0.08 µM (≈ 0.0299 µg/mL) | MFC (R. microsporus): > 20 µM | Selectivity Index (SI), Preformed Biofilm [1]: >156.3 | Selectivity Index (SI), Preformed Biofilm [2]: >312.5 | mitochondrial membrane potential (JC-1) (R. oryzae cells): depolarization of mitochondrial membranes | oxidative stress, ROS (DCFH-DA) (R. oryzae cells): induced oxidative stress | MIC (R. oryzae UCP1295): 0.08 µM | Efficacy of Drugs Alone (% of Inhibition), MIC50 (R. oryzae): 63.5 % of Inhibition | Efficacy of Drugs Alone (% of Inhibition), ½ MIC50 (R. oryzae): 12.6 % of Inhibition | Efficacy of Combined Drugs, E obs (R. oryzae; combined with Amphotericin B): 60.5% | Interaction (R. oryzae; combined with Amphotericin B): S | ΔE (R. oryzae; combined with Amphotericin B): 2.3% | Efficacy of Combined Drugs, E exp (R. oryzae; combined with Amphotericin B): 58.2% | Efficacy of Combined Drugs, E obs (R. oryzae; combined with Posaconazole): 60.2% | Interaction (R. oryzae; combined with Posaconazole): A | ΔE (R. oryzae; combined with Posaconazole): −17.4% | Efficacy of Combined Drugs, E exp (R. oryzae; combined with Posaconazole): 77.6% | CC50 at 48 h [3, 5]: > 50 µM | CC50 at 48 h ([3]; HaCaT keratinocyte cells): > 50 µM

Oc1c(C(Nc2nc3ccccc3s2)c2ccc(OC(F)F)cc2)ccc2cccnc12 (centres unmarked) [MMV019724]
Selectivity Index (SI), Planktonic Cell (R. microsporus): >40 | MIC50 (R. microsporus): 1.25 µM (≈ 0.562 µg/mL) | MFC (R. microsporus): > 20 µM | Selectivity Index (SI), Preformed Biofilm [1]: >40 | Selectivity Index (SI), Preformed Biofilm [2]: >40 | chitin content (calcofluor white) (R. oryzae cells): lower levels | mitochondrial membrane potential (JC-1) (R. oryzae cells): mitochondrial alterations | neutral lipids (Nile Red) (R. oryzae cells): lower levels | MIC (R. oryzae UCP1295): 0.63 µM | Efficacy of Drugs Alone (% of Inhibition), MIC50 (R. oryzae): 62.0 % of Inhibition | Efficacy of Drugs Alone (% of Inhibition), ½ MIC50 (R. oryzae): 32.5 % of Inhibition | Efficacy of Combined Drugs, E obs (R. oryzae; combined with Amphotericin B): 74.8% | Interaction (R. oryzae; combined with Amphotericin B): A | ΔE (R. oryzae; combined with Amphotericin B): −7.3% | Efficacy of Combined Drugs, E exp (R. oryzae; combined with Amphotericin B): 82.1% | Efficacy of Combined Drugs, E obs (R. oryzae; combined with Posaconazole): 58.0% | Interaction (R. oryzae; combined with Posaconazole): A | ΔE (R. oryzae; combined with Posaconazole): −5.6% | Efficacy of Combined Drugs, E exp (R. oryzae; combined with Posaconazole): 63.6% | CC50 at 48 h [3, 5]: > 50 µM | CC50 at 48 h ([3]; HaCaT keratinocyte cells): > 50 µM
